From the NIST ThermoML archive (doi:10.1021/je700339f)
± gives the expanded uncertainty stated by the source.

Settings: 101.33 kPa, Liquid

mass density (298.15 K) [kg/m3] | mass density (308.15 K) [kg/m3] | Structure (SMILES)
943.8 ± 0.4 | 934.2 ± 0.4 | CN(C)C=O [dimethylformamide]
937 ± 0.4 | 926.9 ± 0.4 | CC(=O)N(C)C [N,N-dimethylethanamide]
